The target of one experiment is T1, AtINT2 (Arabidopsis thaliana, UniProt Q9C757).
T1 sequence (Q9C757 1-580): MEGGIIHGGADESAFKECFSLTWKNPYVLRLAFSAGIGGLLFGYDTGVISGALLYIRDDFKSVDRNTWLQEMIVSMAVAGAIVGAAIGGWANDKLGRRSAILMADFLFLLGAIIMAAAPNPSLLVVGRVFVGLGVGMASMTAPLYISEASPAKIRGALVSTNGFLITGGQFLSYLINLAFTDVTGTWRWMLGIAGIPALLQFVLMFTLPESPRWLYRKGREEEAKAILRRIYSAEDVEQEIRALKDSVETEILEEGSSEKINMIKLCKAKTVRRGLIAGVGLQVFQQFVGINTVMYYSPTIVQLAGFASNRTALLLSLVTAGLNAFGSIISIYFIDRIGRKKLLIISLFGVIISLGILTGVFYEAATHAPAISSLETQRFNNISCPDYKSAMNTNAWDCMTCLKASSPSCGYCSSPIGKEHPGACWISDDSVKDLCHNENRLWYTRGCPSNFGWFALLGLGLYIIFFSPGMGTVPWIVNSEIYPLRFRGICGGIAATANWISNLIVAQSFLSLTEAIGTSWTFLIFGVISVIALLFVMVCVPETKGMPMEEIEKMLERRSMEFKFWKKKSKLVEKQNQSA
Kind of experiment: inhibition of arsenic uptake into yeast cells, ICP-MS. Format: cell-based. Conditions: 250 μM As(III), 0-8 μg/mL myo-inositol, 24 h, 30 °C; substrate competition.

The next experiment has as its target T2, AtINT4 (Arabidopsis thaliana, UniProt O23492).
T2 sequence (O23492 1-582): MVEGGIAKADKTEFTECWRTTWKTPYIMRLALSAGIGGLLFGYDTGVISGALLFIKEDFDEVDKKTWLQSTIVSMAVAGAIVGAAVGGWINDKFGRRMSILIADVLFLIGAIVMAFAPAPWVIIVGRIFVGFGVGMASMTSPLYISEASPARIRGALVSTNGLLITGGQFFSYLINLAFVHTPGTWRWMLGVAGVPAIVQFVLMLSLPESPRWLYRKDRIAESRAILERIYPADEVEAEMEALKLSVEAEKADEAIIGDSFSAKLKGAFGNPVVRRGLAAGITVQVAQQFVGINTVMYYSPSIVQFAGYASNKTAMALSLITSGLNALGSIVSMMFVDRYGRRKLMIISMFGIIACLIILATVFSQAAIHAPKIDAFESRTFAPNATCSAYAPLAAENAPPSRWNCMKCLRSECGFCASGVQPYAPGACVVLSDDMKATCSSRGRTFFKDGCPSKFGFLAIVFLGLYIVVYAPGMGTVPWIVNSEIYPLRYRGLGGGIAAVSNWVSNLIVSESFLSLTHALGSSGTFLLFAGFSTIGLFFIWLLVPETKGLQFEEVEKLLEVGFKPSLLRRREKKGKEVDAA
The experiment is described as above. Format: cell-based. To be noted: 250 μM As(III), 0-8 μg/mL myo-inositol, 24 h, 30 °C; substrate competition.

Turning to `O[C@H]1[C@H](O)[C@@H](O)[C@H](O)[C@@H](O)[C@H]1O` [myo-inositol], the “inhibition of arsenic uptake into yeast cells, ICP-MS” value on AtINT2 and at AtINT4 was “substrate competition inhibited arsenic accumulation in D458-1B expressing AtINT2 or AtINT4” each time.

(Values after paper PMC4758254 (Nature plants, 2015).)
